For data set [1] the following is noted: circulating progestins, compared by activity with 0.5 ng preovulatory progesterone; cited from earlier work.
The test system of data set [2] is ovulation. Format: in vivo, human. The following applies: case 3. How it is done:
A person, G2 P1, SAB1, height 152 cm, weight 164 lb was referred for infertility treatment following 6-month inability to conceive naturally. Patient's medical history was significant for PCOS and subclinical hypothyroidism, for which they were taking levothyroxine […]. Patient had menarche at 12, average period duration of 45 days, average menses duration of 6 days. Patient's fallopian tubes were both patent per HSG, with a normal uterine cavity (FIG. 6E). Their AMH was 9.3 ng/ml.
The medication regiment, at the beginning of the third attempt was the same as in the previous attempt when the patient became pregnant with 5 mg of Letrozole in addition to 100 mg CC for 5 days starting on the 3rd day of their period. […] Before the trigger […] P4 and LH were 0.62 ng/ml and 4.26 IU/L respectively (Table 3) and ultrasound identified three follicles 22, 22 and 19 mm (FIG. 6C-6D).
Seven days after the trigger shot, P4 level was 38.39 ng/ml at which time the patient was started on 200 mg progesterone vaginal suppository daily.

The test system of data set [3] is ovulation. Format: in vivo, human. How it is done:
For the natural cycle, they were monitored with ultrasound at the base line on day 2, and then day 12 and 13. At day 13 of the cycle, their leading follicle had reached a size of 17 mm (FIG. 4B), P4 was 1.5 ng/ml and LH was 5 IU/L. They were given an intramuscular injection of 5 mg of progesterone. The protocol is outlined in FIG. 4A
Failure of the follicle to rupture was attributed to its size (17 mm) at the time of the trigger.

The subject of data set [4] is gonadotropins surge. Put plainly: Reported progesterone dose and pharmacodynamics for induction of a gonadotropins surge (Leyendecker et al, 1972). The data set is classed as in vivo, human. Particulars: about 5 mg of progesterone in sesame oil, intramuscular injection; estimate from Leyendecker 1972. How it is done:
The lowest dose of progesterone reported for induction of a gonadotropins surge is […] injected intramuscularly (Leyendecker, et al, 1972).
Consequently, the target cumulative progesterone level in circulation was 1 ng/ml. Based on pharmacodynamics of progesterone (Leyendecker, et al, 1972), it was estimated that in order to achieve circulating progesterone level at its peak (120 minutes post injection) 1 ng/ml, an additional […] was needed to add to the patient's own 0.63 ng/ml. This would be achieved with about 5 mg of progesterone in sesame oil for intramuscular injection. […] Furthermore, progesterone continued to rise to the expected level several days later. The patient's P4 level on day 5 post trigger was excellent and additional supplementation with progesterone thereafter was given only for an abundance of caution.

For data set [5], the system named is gonadotropins surge. The following applies: cited from earlier work.

SMILES strings stand for the structures. Like-named read-outs stand apart in the source and are kept apart here. Where only a bound is given, the exact number is not on record here.

As to `C#C[C@]1(O)CC[C@H]2[C@@H]3CCC4=CC(=O)CC[C@@H]4[C@H]3CC[C@@]21C` [Norethindrone], the Consensus value in data set [1] is 0.35 mg.
Regarding `CC(=O)[C@H]1CC[C@H]2[C@@H]3C=CC4=CC(=O)CC[C@@]4(C)[C@@H]3CC[C@]12C` [Dydrogesterone], the Consensus value in data set [1] was 10 mg.
Regarding `CC(=O)O[C@]1(C(C)=O)CC[C@H]2[C@@H]3C[C@H](C)C4=CC(=O)CC[C@]4(C)[C@H]3CC[C@@]21C` [Medroxyprogesterone acetate], in data set [1], the Consensus value was 5 mg.
In the case of `CC(=O)[C@H]1CC[C@H]2[C@@H]3CCC4=CC(=O)CC[C@]4(C)[C@H]3CC[C@]12C` [progesterone], the LH is 37.01 IU/L in the data set on ovulation [2] (17 hours 30 minutes after trigger shot, 5 mg progesterone in oil); 9.47 IU/L in the data set on ovulation [2] (First follicular ultrasound, before trigger shot); 5.09 IU/L in the data set with ovulation [2] (Stimulation day 10, before trigger shot); 4.26 IU/L in the data set on ovulation [2] (day of progesterone trigger shot (stimulation day 12), before the trigger); 5 IU/L with ovulation [3] (day 13 of the cycle, before the progesterone injection, case 1). In addition, the “Ultrasound observation: uterine lining” value in the data set with ovulation [2] (day 3 after trigger shot) is on record as “lining - 15.2 mm”; with ovulation [2] (day of progesterone trigger shot, before the trigger) it was 10C-10D) Uterine lining 8.8 mm. The P4 level entry in the data set on ovulation [2] (day 5 post trigger) is reported as “excellent”. In addition, the Pregnancy outcome in the data set on ovulation [2] (period 2 weeks later, 200 mg progesterone vaginal suppository daily from day 7) is reported as “no pregnancy occurred”. Besides, the “Circulating hormone level LH” value came out at 10.9 in the data set on ovulation [3] (0 hrs after trigger injection, 5 mg progesterone i.m., case 1); 28.4 in the data set with ovulation [3] (10 hrs after trigger injection, 5 mg progesterone i.m., case 1); 11.36 with ovulation [3] (49 hrs after trigger injection, 5 mg progesterone i.m., case 1). In addition, in the data set with ovulation [3] (17 mm leading follicle at trigger, 5 mg progesterone i.m., case 1), the Follicle rupture result is recorded as “failed to rupture”. Also, the “Time until LH was at the ovulation level” value in the data set on ovulation [3] (after 5 mg progesterone i.m., case 1) is at most 12 h. In the data set with ovulation [3] (female, human, in vivo), this molecule displayed a P4 of 1.5 ng/mL. In the data set with gonadotropins surge [4], the “Estimated additional circulating progesterone level at its peak” value was 0.35 ng/mL. Moreover, in the data set on gonadotropins surge [5] (injected intramuscularly), the “Lowest dose reported for induction of a gonadotropins surge” value is reported as 10 mg. The “Time of peak circulating progesterone level post injection” value in the data set with gonadotropins surge [5] (intramuscular injection) was 120 min.
For the molecule `C#CC1(O)CC[C@H]2[C@@H]3CCC4=CC(=O)CC[C@@H]4[C@H]3CC[C@@]21CC` (mixture of isomers) [D/L norgestrel], in data set [1], the Consensus value is recorded as 0.075 mg.

These data come from patent US20230044690A1, “PROGESTERONE FORMULATION TO TRIGGER OVULATION AND PROVIDE LUTEAL PHASE SUPPORT” (AUGUSTA UNIVERSITY RESEARCH INSTITUTE, INC., priority 2019, published 2023).
